Source: patent publication US5385891A, “Polysulfate of β-cyclodextrin derivative and process for preparing the same” (Tanabe Seiyaku Co., Ltd., priority 1991, dated 1995)
Where a name gives a salt, the structure may show the parent alone.

Test system: HIV in MT-4 cells
Assay: HIV Proliferation Inhibitory Activity (MT-4 cells, 10% FCS)
Format: cell-based, HIV (a culture supernatant of TALL-1/LAV-1)
Settings: Human immunodeficiency virus 1, MT4, 120 h, read-out: HIV proliferation inhibitory activity, 100% inhibition concentration
Description: It is known that when MT-4 cells which are sustaining infectious cell lines of human T-cell Leukemia virus I type (HTLV-I) are infected with HIV, HIV proliferates rapidly and the MT-4 cells are killed in 5 to 6 days due to the cellular damage. Therefore, HIV proliferation inhibitory activity of a sample can be evaluated by examining the number of viable cells of the MT-4 cells infected with HIV.
MT-4 cells were infected with HIV (a culture supernatant of TALL-1/LAV-1) at 37° C. for one hour so that TCID50 (median tissue culture infectious dose)/cell might be 0.001, followed by washing with the medium. The infected MT-4 cells were then suspended at a concentration of 1×10^5 cell/ml in RPMI-1640 media (containing 10% of FCS (fetal calf serum)) containing samples of various concentrations, respectively. Each of the thus obtained cell suspension was introduced in a flat bottom culture plate in an amount of 200 μl/well and was incubated at 37° C. in the presence of 5% carbon dioxide for 5 days. After incubation, the number of viable cells in the cell suspension was counted by the Tripan-Blue Staining Method. The HIV proliferation inhibitory activity of a sample was evaluated in terms of the concentration of the sample which suppresses by 100% the infectiousness and the cell modification activity of HIV in MT-4 cells.

Row | Structure (SMILES) | IC100 [µg/mL]
1 | O=S(=O)(O)OC[C@H]1O[C@@H]2O[C@H]3[C@H](OS(=O)(=O)O)[C@@H](OCc4ccc(F)cc4)[C@@H](O[C@H]4[C@H](OS(=O)(=O)O)[C@@H](OCc5ccc(F)cc5)[C@@H](O[C@H]5[C@H](OS(=O)(=O)O)[C@@H](OCc6ccc(F)cc6)[C@@H](O[C@H]6[C@H](OS(=O)(=O)O)[C@@H](OCc7ccc(F)cc7)[C@@H](O[C@H]7[C@H](OS(=O)(=O)O)[C@@H](OCc8ccc(F)cc8)[C@@H](O[C@H]8[C@H](OS(=O)(=O)O)[C@@H](OCc9ccc(F)cc9)[C@@H](O[C@H]1[C@H](OS(=O)(=O)O)[C@H]2OCc1ccc(F)cc1)O[C@@H]8COS(=O)(=O)O)O[C@@H]7COS(=O)(=O)O)O[C@@H]6COS(=O)(=O)O)O[C@@H]5COS(=O)(=O)O)O[C@@H]4COS(=O)(=O)O)O[C@@H]3COS(=O)(=O)O [Example 6] | 3.9
2 | O=S(=O)(O)OC[C@H]1O[C@@H]2O[C@H]3[C@H](OS(=O)(=O)O)[C@@H](OCc4ccccc4)[C@@H](O[C@H]4[C@H](OS(=O)(=O)O)[C@@H](OCc5ccccc5)[C@@H](O[C@H]5[C@H](OS(=O)(=O)O)[C@@H](OCc6ccccc6)[C@@H](O[C@H]6[C@H](OS(=O)(=O)O)[C@@H](OCc7ccccc7)[C@@H](O[C@H]7[C@H](OS(=O)(=O)O)[C@@H](OCc8ccccc8)[C@@H](O[C@H]8[C@H](OS(=O)(=O)O)[C@@H](OCc9ccccc9)[C@@H](O[C@H]1[C@H](OS(=O)(=O)O)[C@H]2OCc1ccccc1)O[C@@H]8COS(=O)(=O)O)O[C@@H]7COS(=O)(=O)O)O[C@@H]6COS(=O)(=O)O)O[C@@H]5COS(=O)(=O)O)O[C@@H]4COS(=O)(=O)O)O[C@@H]3COS(=O)(=O)O [Example 1, sodium salt of heptakis(2-O-benzyl)-β-cyclodextrin polysulfate] | 0.98
